Key:
[1] = test system: Neotyphodium endophytes in tall fescue; conditions: fungicide soak; cited from earlier work
[2] = test system: Neotyphodium endophytes in perennial ryegrass; conditions: fungicide soak; cited from earlier work
[3] = test system: endophytes (AR502, AR542 and AR584); experiment: Trial 1 field trial: effect of fungicides on viable endophytes, means over endophytes; conditions: means of all other treatments
From the text: The pH of the solution is 7.5.

[4] = test system: ryegrass (Lolium perenne) seed infected with Neotyphodium endophyte; conditions: prochloraze 1 g/kg; triticonazole 5 and 10 g/kg; cited from earlier work

Q: With `COC(=O)NC(=S)Nc1ccccc1NC(=S)NC(=O)OC` [Thiophanate-methyl] as the molecule, how does the “effect of fungicide on endophyte” value [1] read?
A: The value was “no effect on endophyte”.

Q: And the “effect of fungicide on endophyte” value [2]?
A: The value was “little effect on endophyte”.

Q: What does the source list for `O=CNC(N1CCN(C(NC=O)C(Cl)(Cl)Cl)CC1)C(Cl)(Cl)Cl` (stereo not drawn) [Triforine]?
A: effect of fungicide on endophyte [1]: effective in tall fescue; effect of fungicide on endophyte [2]: effective in some perennial ryegrass plants

Q: With `CCCCNC(=O)n1c(NC(=O)OC)nc2ccccc21` [benomyl] as the molecule, how does the “effect of fungicide on endophyte” value [1] read?
A: Its value is “effective in killing endophyte”.

Q: What about the “effect of fungicide on endophyte” value [2] of the same molecule?
A: The value was “effective in killing endophyte”.

Q: For `Fc1ccc([C@]2(Cn3cncn3)O[C@H]2c2ccccc2Cl)cc1` [epiconazole], which “level of viable endophyte” value [3] is on record?
A: Its value is “most significantly reducing viable endophyte levels”.

Q: Which seed germination [4] does the source give for `CCCN(CCOc1c(Cl)cc(Cl)cc1Cl)C(=O)n1ccnc1` [prochloraze] here?
A: The seed germination was “effected”.

Q: For `CC1(C)CCC(=Cc2ccc(Cl)cc2)C1(O)Cn1cncn1` (stereo not drawn) [triticonazole], which seed germination [4] is on record?
A: Its seed germination is “effected”.

— patent US8465963B2, “Grass endophyte enhanced attributes” (priority 2005, dated 2013)
